In the supplement of paper PMC12076712:

Key:
Experiment in all cases: pIC50, kinobeads binding competition
CSF1R = CSF1R (UniProt P07333); settings: cell material: Lysate mix
In short: (§1)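 pIC50 was obtained by fitting fold changes against vehicle to logistic dose-response curves with the R drc package, using biological duplicates. Kinobeads-bound proteins were digested and measured by TMT10 LC-MS/MS. Before this, either living Jurkat cells received nine compound concentrations (top 30 μM, 1:4 steps) for 60 min at 37 °C prior to lysis, or Jurkat lysate or a 1:1:1:1 HEK293/K-562/HepG2/placenta lysate mix received nine concentrations (top 30 μM, 1:5 steps) for 60 min at 4 °C.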

UniProt P00519 = target: UniProt P00519
Sequence of UniProt P00519 (P00519 whole entry): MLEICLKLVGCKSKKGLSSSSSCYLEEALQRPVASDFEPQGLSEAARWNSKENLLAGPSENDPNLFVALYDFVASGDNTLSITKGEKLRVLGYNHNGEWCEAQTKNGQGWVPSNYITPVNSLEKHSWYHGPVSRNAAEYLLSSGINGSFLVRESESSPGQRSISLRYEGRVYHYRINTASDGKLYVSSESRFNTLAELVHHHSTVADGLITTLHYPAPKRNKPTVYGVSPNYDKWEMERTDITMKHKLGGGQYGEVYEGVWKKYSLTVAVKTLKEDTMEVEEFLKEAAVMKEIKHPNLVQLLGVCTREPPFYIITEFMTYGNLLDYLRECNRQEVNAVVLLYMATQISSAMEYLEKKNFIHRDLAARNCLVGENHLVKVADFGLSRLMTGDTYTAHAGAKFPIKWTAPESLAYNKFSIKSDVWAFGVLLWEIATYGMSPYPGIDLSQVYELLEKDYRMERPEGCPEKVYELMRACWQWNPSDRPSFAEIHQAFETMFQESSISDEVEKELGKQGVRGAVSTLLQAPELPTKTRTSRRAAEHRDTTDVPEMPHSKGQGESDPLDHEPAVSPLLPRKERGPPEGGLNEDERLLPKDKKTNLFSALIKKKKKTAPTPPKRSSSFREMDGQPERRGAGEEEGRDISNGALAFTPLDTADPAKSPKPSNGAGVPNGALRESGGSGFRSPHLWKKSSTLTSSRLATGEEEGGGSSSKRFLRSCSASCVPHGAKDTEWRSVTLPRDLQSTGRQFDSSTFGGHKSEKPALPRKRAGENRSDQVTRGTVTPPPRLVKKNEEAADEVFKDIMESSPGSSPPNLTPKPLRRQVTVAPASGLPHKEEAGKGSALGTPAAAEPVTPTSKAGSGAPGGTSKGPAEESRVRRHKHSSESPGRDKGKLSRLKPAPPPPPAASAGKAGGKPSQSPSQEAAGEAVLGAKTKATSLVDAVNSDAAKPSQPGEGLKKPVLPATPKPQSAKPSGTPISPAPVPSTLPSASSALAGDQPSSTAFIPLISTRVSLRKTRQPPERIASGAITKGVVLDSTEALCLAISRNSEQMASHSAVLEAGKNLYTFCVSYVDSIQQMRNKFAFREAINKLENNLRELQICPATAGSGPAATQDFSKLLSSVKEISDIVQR
In short: as §1

UniProt Q99683 = target: T1, UniProt Q99683
T1 sequence (whole entry): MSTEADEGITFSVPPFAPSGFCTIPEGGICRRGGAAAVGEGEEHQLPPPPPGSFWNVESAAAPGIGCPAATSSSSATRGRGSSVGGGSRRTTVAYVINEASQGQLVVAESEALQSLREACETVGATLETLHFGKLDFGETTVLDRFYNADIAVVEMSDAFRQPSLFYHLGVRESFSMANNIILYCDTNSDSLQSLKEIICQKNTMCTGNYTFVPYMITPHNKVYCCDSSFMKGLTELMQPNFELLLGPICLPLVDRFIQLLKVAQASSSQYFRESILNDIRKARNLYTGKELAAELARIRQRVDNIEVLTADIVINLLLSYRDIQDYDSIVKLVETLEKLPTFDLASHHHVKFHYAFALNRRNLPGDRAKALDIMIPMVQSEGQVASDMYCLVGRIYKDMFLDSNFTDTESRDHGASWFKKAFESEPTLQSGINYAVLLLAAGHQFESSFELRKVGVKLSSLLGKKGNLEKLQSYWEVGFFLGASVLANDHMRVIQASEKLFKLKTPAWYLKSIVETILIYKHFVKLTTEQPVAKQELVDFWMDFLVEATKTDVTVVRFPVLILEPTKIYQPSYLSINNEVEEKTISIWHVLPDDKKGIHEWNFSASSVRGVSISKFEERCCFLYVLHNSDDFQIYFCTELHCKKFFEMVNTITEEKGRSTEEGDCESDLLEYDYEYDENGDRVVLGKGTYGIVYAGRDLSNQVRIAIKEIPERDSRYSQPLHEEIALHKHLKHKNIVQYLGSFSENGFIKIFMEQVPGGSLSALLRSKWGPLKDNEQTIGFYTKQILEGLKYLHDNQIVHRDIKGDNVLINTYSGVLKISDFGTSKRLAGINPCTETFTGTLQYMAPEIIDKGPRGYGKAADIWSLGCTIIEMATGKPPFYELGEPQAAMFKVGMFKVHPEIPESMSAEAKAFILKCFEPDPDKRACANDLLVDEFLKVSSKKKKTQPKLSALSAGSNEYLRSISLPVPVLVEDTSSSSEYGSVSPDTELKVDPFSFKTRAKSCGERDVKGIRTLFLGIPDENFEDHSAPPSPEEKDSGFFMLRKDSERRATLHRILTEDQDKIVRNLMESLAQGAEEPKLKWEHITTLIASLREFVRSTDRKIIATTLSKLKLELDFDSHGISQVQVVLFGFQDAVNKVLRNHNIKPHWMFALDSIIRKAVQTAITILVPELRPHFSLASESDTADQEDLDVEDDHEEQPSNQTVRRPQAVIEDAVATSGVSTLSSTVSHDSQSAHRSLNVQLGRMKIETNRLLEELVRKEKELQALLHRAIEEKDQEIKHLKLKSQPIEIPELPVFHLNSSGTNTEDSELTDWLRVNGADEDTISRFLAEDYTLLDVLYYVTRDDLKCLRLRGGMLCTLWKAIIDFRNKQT
In short: as §1

CASK = target: T2, CASK (UniProt O14936); settings: cell material: Lysate mix
T2 sequence (whole entry): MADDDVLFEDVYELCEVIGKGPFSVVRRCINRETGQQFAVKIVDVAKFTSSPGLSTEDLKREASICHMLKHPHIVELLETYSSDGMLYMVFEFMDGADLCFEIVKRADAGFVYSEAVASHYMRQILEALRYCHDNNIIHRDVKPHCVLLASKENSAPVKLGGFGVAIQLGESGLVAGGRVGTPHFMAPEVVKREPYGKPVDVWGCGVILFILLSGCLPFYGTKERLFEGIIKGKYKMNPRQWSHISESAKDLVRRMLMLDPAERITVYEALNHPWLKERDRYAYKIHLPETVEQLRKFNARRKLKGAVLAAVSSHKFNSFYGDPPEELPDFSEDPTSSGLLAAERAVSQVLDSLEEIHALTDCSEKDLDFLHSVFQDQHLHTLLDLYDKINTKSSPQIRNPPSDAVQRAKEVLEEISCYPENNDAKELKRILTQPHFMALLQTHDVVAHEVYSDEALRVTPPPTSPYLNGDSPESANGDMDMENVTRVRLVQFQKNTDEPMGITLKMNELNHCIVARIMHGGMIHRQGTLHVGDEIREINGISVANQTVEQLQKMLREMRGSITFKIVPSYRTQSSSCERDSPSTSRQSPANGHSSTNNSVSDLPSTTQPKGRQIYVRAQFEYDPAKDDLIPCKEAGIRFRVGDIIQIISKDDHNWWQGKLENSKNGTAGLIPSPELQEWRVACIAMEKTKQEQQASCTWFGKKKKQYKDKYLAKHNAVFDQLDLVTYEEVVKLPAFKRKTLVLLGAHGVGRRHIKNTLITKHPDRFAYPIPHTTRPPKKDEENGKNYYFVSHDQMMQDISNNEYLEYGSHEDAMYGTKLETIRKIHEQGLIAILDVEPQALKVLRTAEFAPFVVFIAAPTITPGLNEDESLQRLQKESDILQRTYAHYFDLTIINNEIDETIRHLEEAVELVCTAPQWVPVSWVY
In short: as §1

Sequence of CSF1R (P07333 whole entry): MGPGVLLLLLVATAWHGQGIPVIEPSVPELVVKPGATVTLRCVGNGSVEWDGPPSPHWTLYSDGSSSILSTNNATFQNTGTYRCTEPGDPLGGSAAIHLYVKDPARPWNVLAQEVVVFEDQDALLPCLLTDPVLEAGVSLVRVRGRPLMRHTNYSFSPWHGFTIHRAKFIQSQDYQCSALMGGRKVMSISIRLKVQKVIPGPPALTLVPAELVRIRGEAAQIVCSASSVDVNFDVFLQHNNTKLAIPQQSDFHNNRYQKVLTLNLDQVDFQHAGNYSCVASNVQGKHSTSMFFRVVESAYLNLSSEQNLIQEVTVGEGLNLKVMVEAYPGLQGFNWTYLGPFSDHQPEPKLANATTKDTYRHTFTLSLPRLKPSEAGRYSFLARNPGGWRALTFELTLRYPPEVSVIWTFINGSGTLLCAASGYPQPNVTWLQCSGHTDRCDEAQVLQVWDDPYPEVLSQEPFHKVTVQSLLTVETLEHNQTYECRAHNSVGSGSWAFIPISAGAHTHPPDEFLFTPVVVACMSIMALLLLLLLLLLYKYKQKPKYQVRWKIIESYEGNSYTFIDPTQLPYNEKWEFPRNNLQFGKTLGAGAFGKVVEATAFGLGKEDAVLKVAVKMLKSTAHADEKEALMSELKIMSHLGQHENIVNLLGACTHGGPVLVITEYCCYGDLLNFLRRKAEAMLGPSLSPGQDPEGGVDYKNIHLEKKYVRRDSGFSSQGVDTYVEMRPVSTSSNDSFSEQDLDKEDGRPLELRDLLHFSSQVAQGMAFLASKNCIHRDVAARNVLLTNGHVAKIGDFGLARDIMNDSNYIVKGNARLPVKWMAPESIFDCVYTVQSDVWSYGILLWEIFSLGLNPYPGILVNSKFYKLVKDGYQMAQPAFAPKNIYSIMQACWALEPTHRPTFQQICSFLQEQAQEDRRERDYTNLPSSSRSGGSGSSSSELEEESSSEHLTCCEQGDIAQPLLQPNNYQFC

Row | SMILES | pIC50 (CSF1R) | pIC50 (UniProt P00519; cell material: Jurkat cells) | pIC50 (UniProt P00519; cell material: Jurkat lysate) | pIC50 (UniProt P00519; cell material: Lysate mix) | pIC50 (UniProt Q99683; cell material: Jurkat cells) | pIC50 (UniProt Q99683; cell material: Jurkat lysate) | pIC50 (UniProt Q99683; cell material: Lysate mix) | pIC50 (CASK)
1 | C#CCNC(=O)c1cc(Nc2cc(C3CC3)[nH]n2)nc(N2CCN(Cc3ccc(S(=O)(=O)F)cc3)CC2)n1 | < 4.52 | 5.64 | 4.67 | 4.67 | 5.39 | < 4.52 | < 4.52 | –
2 | C#CCNC(=O)c1cc(Nc2cc(C)[nH]n2)nc(N2CCN(Cc3ccc(S(=O)(=O)F)cc3)CC2)n1 | – | – | – | < 4.52 | – | – | – | < 4.52
3 | Cc1cc(Nc2cc(C(=O)NCCNC(=O)OC3CC/C=C/CCC3)nc(N3CCN(Cc4ccc(S(=O)(=O)F)cc4)CC3)n2)n[nH]1 (configuration not stated) | < 4.52 | – | – | < 4.52 | – | – | < 4.52 | –
4 | O=C(NCCNC(=O)c1cc(Nc2cc(C3CC3)[nH]n2)nc(N2CCN(Cc3ccc(S(=O)(=O)F)cc3)CC2)n1)OC1CC/C=C/CCC1 (configuration not stated) | < 4.52 | 4.86 | < 4.52 | < 4.52 | 4.75 | < 4.52 | < 4.52 | < 4.52
5 | CCNC(=O)c1cc(Nc2cc(C)[nH]n2)nc(N2CCN(Cc3ccc(S(=O)(=O)F)cc3)CC2)n1 | < 4.52 | – | – | < 4.52 | – | – | 4.69 | < 4.52
6 | CCNC(=O)c1cc(Nc2cc(C3CC3)[nH]n2)nc(N2CCN(Cc3ccc(S(=O)(=O)F)cc3)CC2)n1 | < 4.52 | – | – | – | – | – | < 4.52 | < 4.52
